According to the supplement of paper PMC10307832:

Legend:
Assay in all cases: relative viability (nuclei count vs DMSO), 5 days (fraction); higher = more cells survive
[1] = test system: A549
Method in brief: (§1)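 Five library-drug doses in √10 steps were combined with a fixed anchor-drug dose, or a single drug was given alone, by pin tool to lung cancer cell lines in 1536-well plates the day after seeding. Nuclei were stained and counted after 5 days. Relative viability is the nuclei count in treated wells over that in vehicle wells, taken as the median of duplicate plates.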

[2] = test system: NCI-H1563
Method in brief: as §1

[3] = test system: NCI-H1623
Method in brief: as §1

[4] = test system: NCI-H2342
Method in brief: as §1

[5] = test system: NCI-H522
Method in brief: as §1

[6] = test system: SW 900
Method in brief: as §1

[7] = test system: Calu-6
Method in brief: as §1

[8] = test system: EBC-1
Method in brief: as §1

[9] = test system: IA-LM
Method in brief: as §1

[10] = test system: NCI-H1299
Method in brief: as §1

[11] = test system: NCI-H1703
Method in brief: as §1

Cc1cnc(-c2cnc(NCCNc3ccc(C#N)cn3)nc2-c2ccc(Cl)cc2Cl)[nH]1 + N=C(N)NC(=N)NCCc1ccccc1 [Phenformin] (partner 250 µM)
relative viability ([1]; first compound 0.08 µM): 0.168
relative viability ([1]; first compound 0.253 µM): 0.154
relative viability ([1]; first compound 0.8 µM): 0.151
relative viability ([1]; first compound 2.53 µM): 0.154
relative viability ([2]; first compound 0.08 µM): 0.649
relative viability ([2]; first compound 0.253 µM): 0.647
relative viability ([2]; first compound 0.8 µM): 0.636
relative viability ([2]; first compound 2.53 µM): 0.635
relative viability ([3]; first compound 0.08 µM): 0.527
relative viability ([3]; first compound 0.253 µM): 0.503
relative viability ([3]; first compound 0.8 µM): 0.581
relative viability ([3]; first compound 2.53 µM): 0.589
relative viability ([4]; first compound 0.08 µM): 0.622
relative viability ([4]; first compound 0.8 µM): 0.635
relative viability ([4]; first compound 2.53 µM): 0.577
relative viability ([5]; first compound 0.08 µM): 0.639
relative viability ([5]; first compound 0.253 µM): 0.707
relative viability ([5]; first compound 0.8 µM): 0.65
relative viability ([5]; first compound 2.53 µM): 0.666
relative viability ([6]; first compound 0.08 µM): 0.771
relative viability ([6]; first compound 0.253 µM): 0.588
relative viability ([6]; first compound 0.8 µM): 0.644
relative viability ([6]; first compound 2.53 µM): 0.391

O=C(O)CCCCC(CCSCc1ccccc1)SCc1ccccc1 (stereo not drawn) [CPI-613] + CCNC(=O)c1noc(-c2cc(C(C)C)c(O)cc2O)c1-c1ccc(CN2CCOCC2)cc1 [Luminespib] (partner 0.01 µM)
relative viability ([2]; first compound 5 µM): 0.491
relative viability ([2]; first compound 15.81 µM): 0.501
relative viability ([2]; first compound 50 µM): 0.552
relative viability ([2]; first compound 158.11 µM): 0.357
relative viability ([2]; first compound 500 µM): 0.316
relative viability ([3]; first compound 5 µM): 0.405
relative viability ([3]; first compound 15.81 µM): 0.436
relative viability ([3]; first compound 50 µM): 0.54
relative viability ([3]; first compound 158.11 µM): 0.389
relative viability ([3]; first compound 500 µM): 0.447
relative viability ([4]; first compound 5 µM): 0.798
relative viability ([4]; first compound 15.81 µM): 0.738
relative viability ([4]; first compound 50 µM): 0.543
relative viability ([4]; first compound 158.11 µM): 0.668
relative viability ([4]; first compound 500 µM): 0.756
relative viability ([5]; first compound 5 µM): 1.15
relative viability ([5]; first compound 15.81 µM): 1.01
relative viability ([5]; first compound 50 µM): 1.19
relative viability ([5]; first compound 158.11 µM): 0.974
relative viability ([5]; first compound 500 µM): 1.16
relative viability ([6]; first compound 5 µM): 0.162
relative viability ([6]; first compound 15.81 µM): 0.166
relative viability ([6]; first compound 50 µM): 0.209
relative viability ([6]; first compound 158.11 µM): 0.17
relative viability ([6]; first compound 500 µM): 0.0842

O=c1[nH]c2ccccc2n1C1CCN(CCCC(c2ccc(F)cc2)c2ccc(F)cc2)CC1 [Pimozide] + COc1cc2c(Oc3ccc(NC(=O)C4(C(=O)Nc5ccc(F)cc5)CC4)cc3F)ccnc2cc1OCCCN1CCOCC1 [Foretinib] (partner 0.25 µM)
relative viability ([1]; first compound 0.08 µM): 0.891
relative viability ([1]; first compound 0.253 µM): 0.988
relative viability ([1]; first compound 0.8 µM): 1.04
relative viability ([1]; first compound 2.53 µM): 0.949
relative viability ([1]; first compound 8 µM): 0.728
relative viability ([7]; first compound 0.08 µM): 0.887
relative viability ([7]; first compound 0.253 µM): 0.925
relative viability ([7]; first compound 0.8 µM): 0.819
relative viability ([7]; first compound 2.53 µM): 0.914
relative viability ([7]; first compound 8 µM): 0.822
relative viability ([8]; first compound 0.08 µM): 0.0944
relative viability ([8]; first compound 0.253 µM): 0.102
relative viability ([8]; first compound 0.8 µM): 0.0973
relative viability ([8]; first compound 2.53 µM): 0.104
relative viability ([8]; first compound 8 µM): 0.12
relative viability ([9]; first compound 0.08 µM): 1.16
relative viability ([9]; first compound 0.253 µM): 1.15
relative viability ([9]; first compound 0.8 µM): 1.16
relative viability ([9]; first compound 2.53 µM): 1.19
relative viability ([9]; first compound 8 µM): 1.17
relative viability ([10]; first compound 0.08 µM): 1.11
relative viability ([10]; first compound 0.253 µM): 1.12
relative viability ([10]; first compound 0.8 µM): 1.07
relative viability ([10]; first compound 2.53 µM): 1.07
relative viability ([10]; first compound 8 µM): 1.04
relative viability ([2]; first compound 0.08 µM): 0.969
relative viability ([2]; first compound 0.253 µM): 0.849
relative viability ([2]; first compound 0.8 µM): 0.832
relative viability ([2]; first compound 2.53 µM): 0.877
relative viability ([2]; first compound 8 µM): 0.832
relative viability ([3]; first compound 0.08 µM): 0.505
relative viability ([3]; first compound 0.253 µM): 0.879
relative viability ([3]; first compound 0.8 µM): 0.81
relative viability ([3]; first compound 2.53 µM): 0.88
relative viability ([3]; first compound 8 µM): 0.889
relative viability ([11]; first compound 0.08 µM): 0.394
relative viability ([11]; first compound 0.253 µM): 0.272
relative viability ([11]; first compound 0.8 µM): 0.375
relative viability ([11]; first compound 2.53 µM): 0.37
relative viability ([11]; first compound 8 µM): 0.336
relative viability ([4]; first compound 0.08 µM): 0.92
relative viability ([4]; first compound 0.253 µM): 0.973
relative viability ([4]; first compound 0.8 µM): 0.931
relative viability ([4]; first compound 2.53 µM): 0.975
relative viability ([4]; first compound 8 µM): 1.07
relative viability ([6]; first compound 0.08 µM): 0.877
relative viability ([6]; first compound 0.253 µM): 0.956
relative viability ([6]; first compound 0.8 µM): 0.668
relative viability ([6]; first compound 2.53 µM): 0.746
relative viability ([6]; first compound 8 µM): 1.03
